In patent US6384061B1, “Hydantoin compounds and methods related thereto” (LG Chemical Ltd., priority 2000, dated 2002):

Experiments:
[1] = tested on: intracellular Ras farnesyl transferase, Rat2 cell line; test: Intracellular Ras farnesyl transferase inhibiting activity in transformed Rat2 cells (35S-methionine labelling, Y13-259 immunoprecipitation, SDS-PAGE); assay type: cell-based; details: Rattus norvegicus; transformed Rat2 fibroblast cell line; concentration inhibiting 50% of farnesyl binding of Ras protein; read-out: Ftase CIC50
Protocol: In the present experiment, Rat2 cell line which expresses C-Harvey-Ras protein having transforming activity and Rat2 cell line(Korean patent application No. 97-14409) which is transformed with fused protein of H-Ras substituted with polybasic lysine domain at C-terminus of K-Ras were used. The experiment was performed by the modified Declue's method(Declue. J. E. et al., Cancer Research, 1991. 51, 712). Hereinafter, the experimental method will be described in more detail.
3×10^5 cells of transformed Rat2 fibroblast cell line were sprayed on 60 mm cell cultivation dish and cultivated for 48 hours in a cell incubator at 37° C. and after 50% or more of density was reached, it was treated with a reagent. The compound according to the present invention dissolved in dimethylsulfoxide(DMSO) was used as the reagent. 1% of dimethylsulfoxide was used in both control and experimental groups. After 4 hours from the treatment of the reagent, methionine labeled with 150 μCi of radioactive isotope, ^35S per 1 ml of medium, was added and after cultivating for 20 hours, the cells were washed with physiological saline water. The cells were lysed using 1 ml of cool cell lysis buffer solution(50 mM of Sodium Herpiss buffer solution containing 5 mmol of magnesium chloride. 1 mmol of DTT, 1% NP 40, 1 mmol of EDTA, 1 mmol of PMSF, 2 μmol of leupeptin, 2 μmol of pepstatin A and 2 μmol of antipain) and the supernatant was obtained by high-velocity centrifugation of 12,000 g×5 minutes. The amount of the labeled radioisotope of the supernatent was measured and standardized to obtain a quantitative result in immunoprecipitation reaction and then. Y13-259, monoclonal antiboby specifically binding to Ras protein(Furth, M. E. et al., J. Virol, 1982, 43, 294) was added and reacted for 15 hours at 4° C. Protein A bound to goat anti-murine Immunoglobulin antibody-agarose suspension was added to the solution and reacted for 1 hour at 4° C. and then, to remove unspecific binding product, immunoprecipitates were washed with buffer solution(50 mM Tris chloride buffer solution containing 50 mmol of sodium chloride, 0.5% of sodium dioxycolate, 0.5% of NP 40 and 0.1% of SDS). The precipitates were boiled in reagent buffer solution for electrophoresis and then, electrophoresis was performed using 13.5% of SDS polyacrylamide gel. After electrophoresis, the gel was fixed and dried. Then, the gel was exposed to X-ray film, developed and printed. From the result of the experiment, intensities of band of protein with and without farnesyl of Ras protein were measured, and the concentration of reagent inhibiting 50% of farnesyl binding was defined as CIC50, an intracellular Ras farnesyl transferase inhibiting activity.

Ras farnesyl transferase = target: T1, Ras farnesyl transferase (Homo sapiens, UniProt P49354+P49356); test: Ras farnesyl transferase inhibiting activity (filter-binding, tritium-farnesylpyrophosphate, Ras-CVLS substrate); assay type: biochemical; details: recombinant Ras farnesyl transferase, 30 minutes at 37° C., read-out: Ftase IC50
T1 construct: made in house
Protocol: The enzyme reaction was performed in 50 μl of 50 mM Sodium HEPES buffer solution containing 25 mmol of potassium chloride. 25 mmol of magnesium chloride, 10 mmol of DTT and 50 μmol of zinc chloride. 1.5 μmol of Ras substrate protein, 0.15 μmol of tritium-farnesylpyrophosphate and 4.5 nmol of farnesyl transferase were used.
More specifically, in the initial step, farnesyl transferase was added to the above buffer solution, reaction was maintained for 30 minutes at 37° C. and then the reaction was stopped by adding 1 ml of ethanol solution containing 1M HCl. The formed precipitates were adsorbed to GF/B filter using Hopper harvestor(Hopper #225V) for filter-binding, washed with ethanol, and then radioactivity of the dried filter was measured using LKB β counter. Enzyme titer was measured in the unsaturated state of substrate where the concentrations of Ras substrate protein and farnesyl transferase have quantitative relationship. Enzyme inhibiting activity was measured using less than 5% of total reaction solution of the compound according to the present invention dissolved in dimethylsulfoxide(DMSO) solution as a reagent. Enzyme inhibiting activity was represented by percentage of the amount of the farnesyl incorporated with the reagent to that without the reagent.

[2] = target: T2, Geranylgeranyl transferase (Bos taurus, UniProt P29702+Q5EAD5); test: Geranylgeranyl transferase inhibiting activity (geranylgeranyl pyrophosphate, Ras-CVIL substrate); assay type: biochemical; details: geranylgeranyl transferase purified from bovine brain, read-out: GGtase IC50
T2 construct: Geranylgeranyl transferase was purified from bovine brain; from tissue; host or cells: bovine brain
Protocol: To evaluate the selective enzyme inhibiting activity of the compound according to the present invention, inhibiting activity on geranylgeranyl transferase was measured. Geranylgeranyl transferase was purified from bovine brain with the method modified from Schber's method(Schber et al., J. Biol. Chem. 1990, 265, 14701). and substantially the same experiment as that of farnesyl transferase was performed using geranylgeranyl pyrophosphate and Ras-CVIL substrate protein under the similar condition to farnesyl transferase reaction.

Row | IC50 (Ras farnesyl transferase) | IC50 [2] | SMILES | IC50 [1]
1 | 0.05 µM | > 10 µM | CSCC[C@H](NC(=O)CC1C(=O)N(Cc2cncn2Cc2ccc(C#N)cc2)C(=O)N1Cc1cccc2ccccc12)C(=O)O (stereo partly drawn) [Compound 86, (2S)-(2-{1-[3-(4-cyano-benzyl)-3H-imidazol-ylmethyl]-3-naphthalen-1-ylmethyl-2,5-dioxo-imidazolidin-4-yl}-acetamino)4-methylsulfanyl-butyric acid] | < 10 µM
2 | 0.02 µM | > 10 µM | N#Cc1ccc(Cn2cncc2CN2C(=O)CN(c3cccc4ccccc34)C2=O)cc1 [Compound 72, 4-[5-(3-naphthaten-1-yl-2,5-dioxo-imidazolidin-1-ylmethyl)-imidazol-1-ylmethyl]-benzonitrile] | < 20 µM
3 | 0.16 µM | > 10 µM | CN1C(=O)N(Cc2cncn2Cc2ccc(C#N)cc2)C(=O)C1(C)c1cccc2ccccc12 (stereo not drawn) [Compound 60, 4-[5-(3-methyl-4-methyl-4-naphthalen-1-yl-2,5-dioxo-imidazolidin-1-ylmethyl)-imidazol-1-ylmethyl]-benzonitrile] | < 20 µM
4 | 0.6 µM | > 10 µM | CC1(c2cccc3ccccc23)C(=O)N(CCCn2ccnc2)C(=O)N1Cc1cccnc1 (stereo not drawn) [Compound 18, 1-(3-pyridylmethyl)-3-(3-imidazol-1-yl-propyl)-5-methyl-5-naphthalen-1-yl-imidazolidin-2,4-dione] | < 20 µM
5 | 0.019 µM | > 10 µM | CCOC(=O)CN1C(=O)N(CCCc2cncn2Cc2ccc(C#N)cc2)C(=O)C1(C)c1cccc2ccccc12 (stereo not drawn) [Compound 51, (3-{3-[3-(4-cyanobenzyl)-3H-imidazol-4-yl]-propyl}-5-methyl-5-naphthalen-1-yl-2,4-dioxo-imidazolidin-1-yl)-acetic acid ethyl ester] | < 20 µM
6 | 0.09 µM | > 10 µM | N#Cc1ccc(Cn2cncc2CN2C(=O)C(CC(=O)N3CCOCC3)N(Cc3cccc4ccccc34)C2=O)cc1 (stereo not drawn) [Compound 80, 4-{5-[4-(2-morpholin-4-yl-2-oxo-ethyl)-3-naphthalen-1-ylmethyl-2,5dioxo-imidazolidin-1-ylmethyl]-imidazol-1-ylmethyl}-benzonitrile] | < 10 µM
7 | 1.5 µM | > 10 µM | CC1(c2cccc3ccccc23)C(=O)N(CCCn2ccnc2)C(=O)N1Cc1c(F)c(F)c(F)c(F)c1F (stereo not drawn) [Compound 17, 1-(pentafluoro-benzyl)-3-(3-imidazol-1-yl-propyl)-5-methyl-5-naphthalen-1-yl-imidazolidin-2,4-dione] | < 20 µM
8 | 3 µM | > 10 µM | CC1(c2cccc3ccccc23)C(=O)N(CCCn2ccnc2)C(=O)N1Cc1cccc(OC(F)(F)F)c1 (stereo not drawn) [Compound 23, 1-(3-trifluoromethoxy-benzyl)-3-(3-imidazol-1-yl-propyl)-5-methyl-5-naphthalen-1-yl-imidazolidin-2,4-dione] | < 20 µM
9 | 0.055 µM | > 10 µM | CCCCN1C(=O)N(CCCc2cncn2Cc2ccc(C#N)cc2)C(=O)C1(C)c1cccc2ccccc12 (stereo not drawn) [Compound 49, 4-{5-[3-(3-butyl-4-methyl-4-naphthalen-1-yl-2,5-dioxo-imidazolidin-1-yl)-propyl]-imidazol-1-ylmethyl}benzonitrile] | < 20 µM
10 | 0.15 µM | > 10 µM | CN(C)CCNC(=O)CC1C(=O)N(Cc2cncn2Cc2ccc(C#N)cc2)C(=O)N1Cc1cccc2ccccc12 (stereo not drawn) [Compound 82, 2-{1-[3-(4-cyano-benzyl)-3H-imidazol-4-ylmethyl]-3-naphthalen-1-ylmethyl-2,5-dioxo-imidazolidin-4-yl}-N-(2-(N,N-dimethylamino)-ethyl)-acetamide] | < 20 µM
11 | 0.3 µM | > 10 µM | CC1(c2cccc3ccccc23)C(=O)N(CCCn2ccnc2)C(=O)N1Cc1cccc(Br)c1 (stereo not drawn) [Compound 20, 1-(3-bromo-benzyl)-3-(3-imidazol-1-yl-propyl)-5-methyl-5-naphthalen-1-yl-imidazolidin-2,4-dione] | < 20 µM
12 | 0.0008 µM | 3.4 µM | CSCCC(NC(=O)CN1C(=O)N(CCCc2c[nH]cn2)C(=O)C1(C)c1cccc2ccccc12)C(=O)O (stereo not drawn) [Compound 2, 2-(2-{3-[3-(1H-imidazol-4-yl)-propyl]-5-methyl-5-naphthalen-1-yl-2,4-dioxo-imidazolidin-1-yl}-acetylamino)-4-methylsulfanyl-butyric acid] | 5 µM
13 | 0.019 µM | > 10 µM | CC1(c2cccc3ccccc23)C(=O)N(CCCc2cncn2Cc2ccc(C#N)cc2)C(=O)N1CC(=O)O (stereo not drawn) [Compound 52, (3-{3-[3-(4-cyanobenzyl)-3H-imidazol-4-yl]-propyl}-5-methyl-5-naphthalen-1-yl-2,4-dioxo-imidazolidin-1-yl)-acetic acid] | < 20 µM
14 | 0.75 µM | > 10 µM | CC1(c2cccc3ccccc23)C(=O)N(CCCn2ccnc2)C(=O)N1Cc1ccc(Oc2ccccc2)cc1 (stereo not drawn) [Compound 24, 3-(3-imidazol-1-yl-propyl)-5-methyl-5-naphthalen-1-yl-1-(4-phenoxy-benzyl)-imidazolidin-2,4-dione] | < 20 µM
15 | 1.4 µM | > 10 µM | CC1(c2cccc3ccccc23)C(=O)N(CCCn2ccnc2)C(=O)N1Cc1ccc(C(=O)N2CCOCC2)cc1 (stereo not drawn) [Compound 40] | < 20 µM
16 | 0.04 µM | > 10 µM | CCCN1C(=O)N(CCCc2cncn2Cc2ccc(C#N)cc2)C(=O)C1(C)c1cccc2ccccc12 (stereo not drawn) [Compound 48, 4-{5-[3-(3-propyl-4-methyl-4-naphthalen-1-yl-2,5-dioxo-imidazolidin-1-yl)-propyl]-imidazol-1-ylmethyl}benzonitrile] | < 20 µM
17 | 0.16 µM | > 10 µM | CCN1C(=O)N(Cc2cncn2Cc2ccc(C#N)cc2)C(=O)C1(C)c1cccc2ccccc12 (stereo not drawn) [Compound 61, 4-[5-(3-ethyl-4-methyl-4-naphthalen-1-yl-2,5-dioxo-imidazolidin-1-ylmethyl)-imidazol-1-ylmethyl]-benzonitrile] | < 20 µM
18 | 5 µM | > 10 µM | CC1(c2cccc3ccccc23)C(=O)N(CCCn2ccnc2)C(=O)N1Cc1ccc(C(=O)N2CCN(C(=O)OCc3ccccc3)CC2)cc1 (stereo not drawn) [Compound 43, 4-{4-[3-(3-imidazol-1-yl-propyl)-5-methyl-5-naphthalen-1-yl-2,4-dioxo-imidazolidin-1-ylmethyl]-benzoyl}-piperazine-1-carboxylic acid benzyl ester] | < 20 µM
19 | 4 µM | > 10 µM | O=C(OCc1ccccc1)N1CCC(Cn2cncc2CN2C(=O)CN(c3cccc4ccccc34)C2=O)CC1 [Compound 74, 4-[5-(3-naphthalen-1-yl-2,5-dioxo-imidazolidin-1-ylmethyl)-imidazol-1-ylmethyl]-piperidine-1-carboxylic acid benzyl ester] | < 50 µM
